# Measured values from PubChem BioAssay (NCI).
# “And” between values parts separate entries of the source, which are not always exact repeats. Identical values can stand only once.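 96-well plates; 48 h exposure; 5 concentrations. Endpoints by linear interpolation between flanking doses. Not reached: highest tested concentration assigned. GI50: concentration for 50% inhibition of growth. TGI is the concentration that stops growth completely.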 *1 amine or outer side, *2 acyl side, *3 side chain or, on linkers, in order; H or OH if unused. Where a SMILES comes first, the peptide text is derived from it. [ ]: non-standard residue; d: D form. The star is where a group is joined. X31 = CC(=O)N(C)SCC(N[*:1])C(=O)[*:2]; Fmoc = O=C(OCC1c2ccccc2-c2ccccc21)*; For = O=C*
# Legend:
# RPMI-8226 leukemia = experiment: DTP human tumour cell line panel, 48 h
# HL-60(TB) leukemia = experiment: DTP human tumour cell line panel, 48 h
Structure (SMILES),TGI (RPMI-8226 leukemia),TGI (HL-60(TB) leukemia),GI50 (HL-60(TB) leukemia)
NCCC1([N+](=O)[O-])CCNCC1,> 100 µM,> 100 µM,
Cc1ccc(N2C(=O)C(=O)N(/N=C3\C(=O)Nc4ccccc43)C2=S)cc1,> 100 µM,25.4 µM,
CCN1C(=O)CS/C1=N\NC(=O)CSc1nc2ccccc2c(=O)n1CC,> 100 µM,> 100 µM,
CC(=O)N(C)SCC(NC(=O)C(Cc1ccccc1)NC(=O)OCC1c2ccccc2-c2ccccc21)C(=O)NC(Cc1ccccc1)C(=O)NC(Cc1cn(C=O)c2ccccc12)C(=O)NC(CCCCNC(=O)OCC1c2ccccc2-c2ccccc21)C(=O)NC(C(=O)NC(CSN(C)C(C)=O)C(=O)NC(C(N)=O)C(C)O)C(C)O (centres undefined) (Fmoc-F[X31]FW(For)K(Fmoc)T[X31]T-NH2; configuration not given here),> 100 µM,> 100 µM,
C=C(CC)C[C@@H]1C[C@]2(C(=O)OC)c3[nH]c4ccccc4c3CCN2C1=O,,82.5 µM,
CC(=O)NC(CO)C(=O)NC(Cc1ccc(O)cc1)C(=O)NCC(N)=O (stereo not drawn) (Ac-Ser-Tyr-Gly-NH2; configuration not given here),> 100 µM,> 100 µM,
C#CC(O)Cc1ccc(OC)c2occc12 (centres undefined),> 100 µM,,
N#CCN(Cc1ccccc1)[C@@H]1CCC[C@]1(O)C#Cc1ccc2c(c1)OCO2,42.2 µM,45.1 µM,
COC(=O)CCC(C)[C@H]1CCC2C3C(C[C@H](OC(C)=O)[C@@]21C)[C@@]1(C)CCC2(C[C@H]1C[C@H]3OC(C)=O)OOC1(CCCCC1)OO2 (some centres undefined),6.43 µM,> 100 µM,
CC(C)(C)N=c1n(C(C)(C)C)oc(=O)n1-c1ccccc1,> 50 µM,> 50 µM,
Cc1nc(Nc2nc3ccccc3[nH]2)[nH]c(=O)c1CCO,,> 100 µM,
CC[C@H](C)[C@H]1NC(=O)[C@@H](NC(=O)[C@@H](CC(C)C)N(C)C(=O)C2CCCN2C(=O)[C@H](C)O)[C@@H](C)OC(=O)[C@H](Cc2ccccc2)N(C)C(=O)[C@@H]2CCCN2C(=O)[C@H](CC(C)C)NC(=O)[C@@H](C)C(=O)[C@H](C(C)C)OC(=O)C[C@@H]1O (some centres undefined),,> 62.5 µM,
COc1cccc(C(=O)N[C@@H]2[C@H](O)[C@@H](CO)O[C@H]2n2cnc3c(N)ncnc32)c1,> 100 µM,> 100 µM,
O=C(O)CO/N=C1/C(c2c(O)[nH]c3ccccc23)=Nc2ccccc21,> 100 µM,> 100 µM,
OC1(c2ccc3ccccc3c2)c2c(c3ccccc3c3ccccc23)C2=NCCN21 (centres undefined),6.87 µM,> 100 µM,
Cn1c(=O)sc2cc(C(=S)N3CCN(c4ccccc4)CC3)ccc21,> 100 µM,> 100 µM,
COC(=O)[C@@H]1[C@H](O)CC[C@H]2[C@@]1(C)CC[C@@H](C)[C@]2(COC(C)=O)CC(=O)c1ccoc1,> 50 µM,> 50 µM,
COC1C(OC(N)=O)C(O)C(Oc2ccc3c(O)c(NC(=O)c4ccc(O)c(CC=C(C)C)c4)c(=O)oc3c2C)OC1(C)C (centres undefined),> 100 µM,,
CC(Nc1n[nH]c(=O)c2c1nnn2Cc1ccccc1)c1ccccc1 (centres undefined),> 100 µM,> 100 µM,37.4 µM and > 100 µM
CCCN(CCC)C(=O)c1c(Cl)c2cccnc2n2c(C)cnc12,> 100 µM,71.7 µM,
Cc1cn2c(/C=C3/C(=O)Nc4ccccc43)c(C)nc2s1,21 µM,2.53 µM,

Structure (SMILES),TGI (RPMI-8226 leukemia),TGI (HL-60(TB) leukemia),GI50 (HL-60(TB) leukemia)
CSc1nc(-c2ccc(Cl)cc2)c(C#N)c(=O)[nH]1,> 100 µM,> 100 µM,
Cc1ccc(Nc2cn(COCc3ccccc3)c(=O)[nH]c2=O)cc1,> 100 µM,> 100 µM,
CCCCCCC(=O)OC[n+]1cccc(-c2c(COC(=O)NC(C)C)c(COC(=O)NC(C)C)c3n2CCC3)c1,> 100 µM,> 48.9 µM,
CC(=O)NC1C(OCc2ccccc2)OC(CO)C(O)C1OCC(=O)N1CCCC1C(=O)NC(CCC(=O)NCCCCCNc1c2ccccc2nc2cccc([N+](=O)[O-])c12)C(N)=O (centres undefined),0.789 µM,3.98 µM,
Cc1[nH]c2ccccc2c1C1=CC(=O)N(c2ccccc2)C1=O,> 100 µM,39 µM,
Nc1nc(NCCOCP(=O)(O)O)c(N)c(=O)[nH]1,> 100 µM,> 100 µM,
CC(C)(CN)SCc1ccccc1,> 100 µM,> 100 µM,
CCOC(=O)c1c(NC(=O)c2ccc(Br)cc2)sc2c1CCCC2,> 100 µM,> 100 µM,
c1ccc(CSC(SCc2ccccc2)c2ccc3c(c2)OCO3)cc1,> 10 µM,> 10 µM,
N#Cc1c(N2CCOCC2)ncn(-c2ccc(Cl)cc2)c1=O,> 100 µM,> 100 µM,
CN(C)C(=O)Oc1ccc(C(=S)Nc2ccccc2)cc1Br,73.9 µM,39.6 µM,
CC(=O)Nc1nnc(S(=O)(=O)NC(=S)Nc2ccc(Cl)cc2)s1,> 100 µM,> 100 µM,
COc1nc(C)nc2c1ncn2Cc1ccccc1,> 100 µM,> 100 µM,
Cn1nc(C(=O)N2CC(CCl)c3c2cc([N+](=O)[O-])c2ccccc32)cc1NC(=O)Nc1cc(C(=O)N2CC(CCl)c3c2cc([N+](=O)[O-])c2ccccc32)nn1C (centres undefined),> 100 µM,,
NCCCCCNOCCCN,> 100 µM,> 100 µM,
CCOC(=O)c1ccc(Nc2cnc3ccc(C(F)(F)F)cc3n2)cc1,71.1 µM,37.7 µM,
COc1ccccc1N1C(=O)CC(=O)N(C(=O)CCCCCCCCC(=O)N2C(=O)CC(=O)N(c3ccccc3OC)C2=S)C1=S,> 100 µM,,
COc1cc2c(cc1OCCCCN1CCN(CCCCOc3cc4c(cc3OC)C(=O)N3CCC[C@H]3C=N4)CC1)N=C[C@@H]1CCCN1C2=O,< 0.0241 µM,,
Nc1cc(N)c(N=Nc2cccc3c(S(=O)(=O)O)cccc23)cc1N=Nc1cc([N+](=O)[O-])ccc1O,> 100 µM,,
O=[N+]([O-])c1ccc2[nH]c(O)c(N=NC(=S)Nc3ccccc3)c2c1,> 100 µM,36.3 µM,
S=C(Nc1cccc(C2(N3CCCCC3)CCCCC2)c1)Nc1cccc(C2(N3CCCCC3)CCCCC2)c1,30.7 µM,38.2 µM,

Structure (SMILES),TGI (RPMI-8226 leukemia),TGI (HL-60(TB) leukemia),GI50 (HL-60(TB) leukemia)
O=C1/C(=C/c2ccc(Cl)cc2)Sc2scc(-c3cccc([N+](=O)[O-])c3)[n+]21,3.99 µM,,
CC(Cc1ccc2c(c1)OCO2)N(C)C(=O)C1=CCN(C)CC1 (centres undefined),> 100 µM,> 100 µM,
O=C(Nc1ccc(S(=O)(=O)Nc2ncccn2)cc1)c1c2ccccc2nc2ccccc12,> 100 µM,> 100 µM,
CC1=C(C(=O)NC(C)(C)C)CC(C(=O)NC(C)(C)C)C(C)N1 (centres undefined),> 100 µM,> 100 µM,
C=CC[C@H]1[C@H](O[Si](C)(C)C(C)(C)C)C=CC(=O)[C@@H]1CC(=O)OCC,12.2 µM,24.8 µM,
Cc1cc(C(O)CNC(C)CCn2cnc3c2c(=O)n(C)c(=O)n3C)ccc1O (centres undefined),> 100 µM,,
Cc1cc(C#N)c(Nc2ccccc2[N+](=O)[O-])s1,> 100 µM,,
C=CCC1C2CCC(O[Si](C(C)C)(C(C)C)C(C)C)(C(C(=O)OC)C2)C1O (centres undefined),> 100 µM,36.7 µM,
O=c1c(Sc2ncccn2)c(Sc2ncccn2)cnn1CCl,> 20.6 µM,5 µM,
O=C1C(NS(=O)(=O)c2ccccc2)=C(N(Cc2ccccc2)Cc2ccccc2)C(=O)c2ccccc21,72.7 µM,66.1 µM,
CC1(C)CC2(C)ON=C(c3ccccc3)N2c2ccccc2N1 (centres undefined),93 µM,56.4 µM,
CCOP(=O)(OCC)C(=C1C=C(C(C)(C)C)C(=O)C(C(C)(C)C)=C1)P(=O)(OCC)OCC,> 10 µM,> 7.36 µM,
CCOC(=O)NC(=S)NC(C)c1ccccc1 (centres undefined),> 100 µM,,
Cc1ccc(-n2cc(-c3ccc(Cl)cc3)c(C#N)c2N)cc1,,90.7 µM,
O=C1c2c(ccc3c2CCCC3)CC1Cc1ccc2c(c1)CCCC2 (centres undefined),> 100 µM,46.9 µM,
CC1=C(C)C(=O)C(C2=C(C3=CC(=O)C(C)=C(C)C3=O)C(=O)c3ccccc3C2=O)=CC1=O,18 µM,1.11 µM,
CN1CCCC(C(=O)OCC(=O)C2(O)CCC3C4CCC5=CC(=O)CCC5(C)C4C(O)CC32C)C1 (centres undefined),27.8 µM,11 µM,
COc1ccc(N2C(=O)C3c4[nH]c5ccc(OCc6ccccc6)cc5c4C4CCC(C(C)C)CC4C3C2=O)cc1 (centres undefined),> 100 µM,23.9 µM,
CC(=O)/C(=C(/Br)I)c1ccccc1,9.35 µM,4.95 µM,
